One assay has as its system DLD1 BRCA2 (−/−) cells. The experiment in a line: 7-day cell viability assay (CellTiter-Glo), DLD1 BRCA2 (−/−). The format is cell-based, human. The conditions noted are these: Homo sapiens, DLD-1, 168 h, 7-day CellTiter-Glo, n=2, read-out: Viability IC50 (uM) DLD1 BRCA2 null. The essentials:
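7-day growth assay in DLD1 cells with or without BRCA2; seeding densities chosen to keep log-linear growth. Compound: 10 uM top, 3-fold, 9 points. Endpoint: CTG ATP luminescence at RT.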
Background: ATP-based viability assays read luminescence as a measure of living cells.

The next assay deals with DLD1 WT cells. Briefly: 7-day cell viability assay (CellTiter-Glo), DLD1 parental (WT). The format is cell-based, human. The conditions noted are these: Homo sapiens, DLD-1, 168 h, 7-day CellTiter-Glo, n=2.

As a reminder, the IC50 is the concentration needed to halve the response being measured.

In the case of `COc1cnc(Cl)cc1-c1cc(C)ncc1C(=O)Nc1nc2c(s1)CN(C(=O)c1ncc(OC(F)(F)F)cc1C)C2` [Example 1007, 2′-chloro-5′-methoxy-6-methyl-N-(5-(3-methyl-5-(trifluoromethoxy)picolinoyl)-5,6-dihydro-4H-pyrrolo[3,4-d]thiazol-2-yl)-[4,4′-bipyridine]-3-carboxamide], the IC50 with DLD1 BRCA2 (−/−) cells is 0.001 to 0.1 µM; in the assay with DLD1 WT cells it was at least 10 µM.
For the compound `COc1cnc(Cl)cc1-c1cc(C)ncc1C(=O)Nc1nc2c(s1)CN(C(=O)c1ccc(OC(F)F)c(C)n1)C2` [Example 1008, 2′-chloro-N-(5-(5-(difluoromethoxy)-6-methylpicolinoyl)-5,6-dihydro-4H-pyrrolo[3,4-d]thiazol-2-yl)-5′-methoxy-6-methyl-[4,4′-bipyridine]-3-carboxamide], the values for the IC50 in the assay on DLD1 BRCA2 (−/−) cells and in the assay on DLD1 WT cells were 0.001 to 0.1 µM and at least 10 µM, respectively.
Regarding `COc1cnc(Cl)cc1-c1cc(C)ncc1C(=O)Nc1nc2c(s1)CN(C(=O)c1cnc(OC(F)(F)F)cc1C)C2` [Example 1009, 2′-chloro-5′-methoxy-6-methyl-N-(5-(4-methyl-6-(trifluoromethoxy)nicotinoyl)-5,6-dihydro-4H-pyrrolo[3,4-d]thiazol-2-yl)-[4,4′-bipyridine]-3-carboxamide], the IC50 was 0.001 to 0.1 µM in the assay on DLD1 BRCA2 (−/−) cells and at least 10 µM with DLD1 WT cells.
In the same order, the values of `COc1cc2c(cnn2C)cc1-c1cc(C)ncc1C(=O)Nc1nc2c(s1)CN(C(=O)c1ccc(C(F)(F)F)nc1OC)C2` [Example 1010, 4-(6-methoxy-1-methyl-1H-indazol-S-yl)-N-(5-(2-methoxy-6-(trifluoromethyl)nicotinoyl)-5,6-dihydro-4H-pyrrolo[3,4-d]thiazol-2-yl)-6-methylnicotinamide] are 0.001 to 0.1 µM and at least 10 µM.
In the same order, the values of `COc1cnc(Cl)cc1-c1cc(C)ncc1C(=O)Nc1nc2c(s1)CN(C(=O)c1ncc(C)c(C(F)(F)F)c1C)C2` [Example 1011, 2′-chloro-N-(5-(3,5-dimethyl-4-(trifluoromethyl)picolinoyl)-5,6-dihydro-4H-pyrrolo[3,4-d]thiazol-2-yl)-5′-methoxy-6-methyl-[4,4′-bipyridine]-3-carboxamide] are 0.001 to 0.1 µM and at least 10 µM.
Turning to `COc1cnc(Cl)cc1-c1cc(C)ncc1C(=O)Nc1nc2c(s1)CN(C(=O)c1nc(C(F)(F)F)c(C)cc1C)C2` [Example 1012, 2′-chloro-N-(5-(3,5-dimethyl-6-(trifluoromethyl)picolinoyl)-5,6-dihydro-4H-pyrrolo[3,4-d]thiazol-2-yl)-5′-methoxy-6-methyl-[4,4′-bipyridine]-3-carboxamide], the IC50 with DLD1 BRCA2 (−/−) cells is 0.001 to 0.1 µM; in the assay with DLD1 WT cells it was at least 10 µM.
For the compound `COc1cccc(F)c1-c1cc(C)ncc1C(=O)Nc1nc2c(s1)CN(C(=O)c1ccc(C(F)(F)F)nc1OC)C2` [Example 1013, 4-(2-fluoro-6-methoxyphenyl)-N-(5-(2-methoxy-6-(trifluoromethyl)nicotinoyl)-5,6-dihydro-4H-pyrrolo[3,4-d]thiazol-2-yl)-6-methylnicotinamide], the concentration for half-maximal inhibition (IC50) in the assay on DLD1 BRCA2 (−/−) cells was 0.001 to 0.1 µM; in the assay on DLD1 WT cells, at least 10 µM.
For `COc1cnc(Cl)cc1-c1cc(C)ncc1C(=O)Nc1nc2c(s1)CN(C(=O)c1nc(C)c(C(F)(F)F)cc1F)C2` [Example 1014, 2′-chloro-N-(5-(3-fluoro-6-methyl-5-(trifluoromethyl)picolinoyl)-5,6-dihydro-4H-pyrrolo[3,4-d]thiazol-2-yl)-5′-methoxy-6-methyl-[4,4′-bipyridine]-3-carboxamide], the IC50 was 0.001 to 0.1 µM in the assay on DLD1 BRCA2 (−/−) cells and at least 10 µM with DLD1 WT cells.
`COc1cnc(Cl)cc1-c1cc(C)ncc1C(=O)Nc1nc2c(s1)CN(C(=O)c1ccc(C#N)c(C(F)F)n1)C2` [Example 1015, 2′-chloro-N-(5-(5-cyano-6-(difluoromethyl)picolinoyl)-5,6-dibydro-4H-pyrrolo[3,4-d]thiazol-2-yl)-5′-methoxy-6-methyl-[4,4′-bipyridine]-3-carboxamide]: the IC50 in the assay on DLD1 BRCA2 (−/−) cells is 0.001 to 0.1 µM; in the assay with DLD1 WT cells, at least 10 µM.
Take `COc1cnc(C(F)F)cc1-c1cc(C)ncc1C(=O)Nc1nc2c(s1)CN(C(=O)c1ccc(C(F)(F)F)nc1OC)C2` [Example 1016, 2′-(difluoromethyl)-5′-methoxy-N-(5-(2-methoxy-6-(trifluoromethyl)nicotinoyl)-5,6-dihydro-4H-pyrrolo[3,4-d]thiazol-2-yl)-6-methyl-[4,4′-bipyridine]-3-carboxamide]: the concentration for half-maximal inhibition (IC50) in the assay with DLD1 BRCA2 (−/−) cells is 0.001 to 0.1 µM; with DLD1 WT cells, at least 10 µM.
Take `COc1cnc(Cl)cc1-c1cc(C)ncc1C(=O)Nc1nc2c(s1)CN(C(=O)c1ccc(OC(F)(F)F)nc1C)C2` [Example 1018, 2′-chloro-5′-methoxy-6-methyl-N-(5-(2-methyl-6-(trifluoromethoxy)nicotinoyl)-5,6-dihydro-4H-pyrrolo[3,4-d]thiazol-2-yl)-[4,4′-bipyridine]-3-carboxamide]: the IC50 in the assay on DLD1 BRCA2 (−/−) cells was 0.001 to 0.1 µM; in the assay on DLD1 WT cells it was at least 10 µM.
Consider `COc1cnc(Cl)cc1-c1cc(C)ncc1C(=O)Nc1nc2c(s1)CN(C(=O)c1c(C)cc(C(F)(F)F)nc1OC)C2` [Example 1019, 2′-chloro-5′-methoxy-N-(5-(2-methoxy-4-methyl-6-(trifluoromethyl)nicotinoyl)-5,6-dihydro-4H-pyrrolo[3,4-d]thiazol-2-yl)-6-methyl-[4,4′-bipyridine]-3-carboxamide], for which the figures for the IC50 in the assay with DLD1 BRCA2 (−/−) cells and with DLD1 WT cells were 0.001 to 0.1 µM and at least 10 µM, respectively.
Turning to `COc1cnc(Cl)cc1-c1cc(C)ncc1C(=O)Nc1nc2c(s1)CN(C(=O)c1nc(C)c(C(F)F)c(C)c1Cl)C2` [Example 1020, 2′-chloro-N-(5-(3-chloro-5-(difluoromethyl)-4,6-dimethylpicolinoyl)-5,6-dihydro-4H-pyrrolo[3,4-d]thiazol-2-yl)-5′-methoxy-6-methyl-[4,4′-bipyridine]-3-carboxamide], the IC50 in the assay on DLD1 BRCA2 (−/−) cells is 0.001 to 0.1 µM; in the assay on DLD1 WT cells, at least 10 µM.
In the case of `COc1cnc(Cl)cc1-c1cc(C)ncc1C(=O)Nc1nc2c(s1)CN(C(=O)c1nc(C(F)(F)F)c(C#N)cc1C)C2` [Example 1022, 2′-chloro-N-(5-(5-cyano-3-methyl-6-(trifluoromethyl)picolinoyl)-5,6-dihydro-4H-pyrrolo[3,4-d]thiazol-2-yl)-5′-methoxy-6-methyl-[4,4′-bipyridine]-3-carboxamide], the results for the concentration for half-maximal inhibition (IC50) in the assay with DLD1 BRCA2 (−/−) cells and in the assay on DLD1 WT cells were 0.001 to 0.1 µM and at least 10 µM, respectively.
On the same counts, the results for `COc1cnc(Cl)c(F)c1-c1cc(C)ncc1C(=O)Nc1nc2c(s1)CN(C(=O)c1ccc(C(F)(F)F)nc1OC)C2` [Example 1023, 2′-chloro-3′-fluoro-5′-methoxy-N-(5-(2-methoxy-6-(trifluoromethyl)nicotinoyl)-5,6-dihydro-4H-pyrrolo[3,4-d]thiazol-2-yl)-6-methyl-[4,4′-bipyridine]-3-carboxamide] are 0.001 to 0.1 µM and at least 10 µM.
Take `COc1nnc(C(F)F)cc1-c1cc(C)ncc1C(=O)Nc1nc2c(s1)CN(C(=O)c1nccc(C(F)(F)F)c1C)C2` [Example 1024, 4-(6-(difluoromethyl)-3-methoxypyridazin-4-yl)-6-methyl-N-(5-(3-methyl-4-(trifluoromethyl)picolinoyl)-5,6-dihydro-4H-pyrrolo[3,4-d]thiazol-2-yl)nicotinamide]: the IC50 is 0.001 to 0.1 µM in the assay on DLD1 BRCA2 (−/−) cells and at least 10 µM in the assay with DLD1 WT cells.
Take `COc1nc(C(F)(F)F)ccc1C(=O)N1Cc2nc(NC(=O)c3cnc(C)cc3-c3cc(C(F)F)nnc3OC)sc2C1` [Example 1025, 4-(6-(difluoromethyl)-3-methoxypyridazin-4-yl)-N-(5-(2-methoxy-6-(trifluoromethyl)nicotinoyl)-5,6-dihydro-4H-pyrrolo[3,4-d]thiazol-2-yl)-6-methylnicotinamide]: the figures for the IC50 with DLD1 BRCA2 (−/−) cells and with DLD1 WT cells were 0.001 to 0.1 µM and at least 10 µM, respectively.
In the case of `COc1nnc(C(F)F)cc1-c1cc(C)ncc1C(=O)Nc1nc2c(s1)CN(C(=O)c1nccc(C(F)(F)F)c1F)C2` [Example 1026, 4-(6-(difluoromethyl)-3-methoxypyridazin-4-yl)-N-(5-(3-fluoro-4-(trifluoromethyl)picolinoyl)-5,6-dihydro-4H-pyrrolo[3,4-d]thiazol-2-yl)-6-methylnicotinamide], the IC50 in the assay with DLD1 BRCA2 (−/−) cells is 0.001 to 0.1 µM; in the assay on DLD1 WT cells it was at least 10 µM.
Turning to `COc1cnc(Cl)cc1-c1cc(C)ncc1C(=O)Nc1nc2c(s1)CN(C(=O)c1nc(C)c(OC(F)F)cc1C)C2` [Example 1027, 2′-chloro-N-(5-(5-(difluoromethoxy)-3,6-dimethylpicolinoyl)-5,6-dihydro-4H-pyrrolo[3,4-d]thiazol-2-yl)-5′-methoxy-6-methyl-[4,4′-bipyridine]-3-carboxamide], the IC50 with DLD1 BRCA2 (−/−) cells is 0.001 to 0.1 µM; in the assay with DLD1 WT cells it was at least 10 µM.
For `COc1cnc(Cl)cc1-c1cc(C)ncc1C(=O)Nc1nc2c(s1)CN(C(=O)c1nc(C)c(OC(F)(F)F)cc1C)C2` [Example 1028, 2′-chloro-N-(5-(3,6-dimethyl-5-(trifluoromethoxy)picolinoyl)-5,6-dihydro-4H-pyrrolo[3,4-d]thiazol-2-yl)-5′-methoxy-6-methyl-[4,4′-bipyridine]-3-carboxamide], the figures for the IC50 in the assay on DLD1 BRCA2 (−/−) cells and in the assay with DLD1 WT cells were 0.001 to 0.1 µM and at least 10 µM, respectively.
Turning to `COc1cnc(C)c(F)c1-c1cc(C)ncc1C(=O)Nc1nc2c(s1)CN(C(=O)c1ccc(C(F)(F)F)nc1OC)C2` [Example 1029, 3′-fluoro-5′-methoxy-N-(5-(2-methoxy-6-(trifluoromethyl)nicotinoyl)-5,6-dihydro-4H-pyrrolo[3,4-d]thiazol-2-yl)-2′,6-dimethyl-[4,4′-bipyridine]-3-carboxamide], the IC50 is 0.001 to 0.1 µM in the assay on DLD1 BRCA2 (−/−) cells and at least 10 µM in the assay with DLD1 WT cells.
In the same order, the values of `COc1cc(C)c(C(=O)N2Cc3nc(NC(=O)c4cnc(C)cc4-c4cc(Cl)ncc4OC)sc3C2)c(Cl)n1` [Example 1030, 2′-chloro-N-(5-(2-chloro-6-methoxy-4-methylnicotinoyl)-5,6-dihydro-4H-pyrrolo[3,4-d]thiazol-2-yl)-5′-methoxy-6-methyl-[4,4′-bipyridine]-3-carboxamide] are 0.001 to 0.1 µM and at least 10 µM.

The values above are taken from US20250230171A1 (MOMA Therapeutics, Inc., priority 2023, published 2025).
